Reference: patent US20250295659A1, “METHODS FOR TREATING TRAUMATIC BRAIN INJURY” (The Regents of the University of California, priority 2021, published 2025)
“Also recorded” adds a separate entry of the source.

Tests used:
[1] = doses for FDA-approved treatments (cancer patients); cited from earlier work
[2] = system: TBI (moderate lateral fluid percussion) in adult male Sprague-Dawley rats; experiment: Morris Water Maze after moderate lateral fluid percussion TBI; type: in vivo, rat; conditions: LFP-TBI, 2 mg/kg i.p. single dose immediately after TBI, days 12 through 16 after TBI, vs TBI/vehicle, P<0.05
Method: Moderate Lateral fluid percussion (LFP) was used to produce TBI in adult male Sprague-Dawley rats (weighing 300-350 grams). […] All of the following data were obtained using moderate LFP in adult rats. […] Sham and vehicle control animals received 5% DMSO in 0.9% saline. Morris Water Maze (MWM). Spatial memory was assessed using the MWM on days 12 through 16 after TBI. […] In brief rats were released from one of four starting points and allowed 120 s to find the escape platform. Rats received a total of 4 trials per day, one from each starting point, over 5 consecutive days. Behavioral assessments were performed by an individual blinded to the treatment groups. Mean latency to find the platform was calculated for each day to assess learning as well as the mean swimming speed to assess motor function. Statistical differences were determined using repeated measures ANOVA followed by Dunnett's post hoc test.

[3] = system: CCI-TBI in rats, ipsilateral hippocampal CA2-3 neurons; experiment: NeuN-positive hippocampal CA2-3 neuron counts after CCI-TBI; type: in vivo, rat; conditions: 2 mg/kg single dose at 0, 3 or 6 hrs post-TBI, 24 hrs after TBI, vs TBI/vehicle, P<0.05 or P<0.01
Method: Brain sample preparation and immunohistochemistry. Anesthetized rats were perfused with saline followed by 4% PFA at day 1 or day 16. Brain sections (50 μm) are cut at −20° C. and incubated in 0.3% H2O2 for 10 minutes to quench endogenous peroxidase, incubated with 3% horse blocking serum for 20 minutes, and then incubated overnight in primary antibody (mouse anti-NeuN, mature neuron marker, 1:150, Millipore), then in biotinylated secondary antibody (Goat anti-mouse 1:1,000, Vector) for 0.5 h, then placed in Vectastain ABC reagent for 0.5 hr and incubated in peroxidase substrate 3, 3′-diaminobenzidine (DAB) solution for 10 min.
Stereological cell counts. The total number of NeuN-positive neurons in CA2-3 of hippocampus were quantified bilaterally using stereological methods. The NeuN-positive cell counts were performed on a microscope (Nikon E600, Nikon) using commercial software (Stereo Investigator™8.0, Microbrightfield, Inc.). Serial sections cut at 50 μm thick were collected at Bregma −2.80 mm to Bregma −4.16 mm for a total of 10 sections per brain. […] Statistical differences are determined using ANOVA followed by Dunnett's post hoc test.
Methods: One day after controlled cortical impact (CCI)-TBI, rats were anesthetized and transcardially perfused with PBS followed by 4% PFA. […] The NeuN^+ cells in ipsilateral hippocampal CA2-3 were quantified (n=4-8).

CCI-TBI in rats = experiment: Elevated body swing test after CCI-TBI; type: in vivo, rat; conditions: 2 mg/kg i.p. single dose at 0 or 3 hrs post-TBI, 24 hrs after TBI, vs TBI/vehicle, P<0.05
c-Kit = c-Kit (Homo sapiens, UniProt P10721); conditions: target kinase c-Kit; cell-free; read-out: IC50 (nm) in vitro; cited from earlier work
Chain of c-Kit (P10721 26-976): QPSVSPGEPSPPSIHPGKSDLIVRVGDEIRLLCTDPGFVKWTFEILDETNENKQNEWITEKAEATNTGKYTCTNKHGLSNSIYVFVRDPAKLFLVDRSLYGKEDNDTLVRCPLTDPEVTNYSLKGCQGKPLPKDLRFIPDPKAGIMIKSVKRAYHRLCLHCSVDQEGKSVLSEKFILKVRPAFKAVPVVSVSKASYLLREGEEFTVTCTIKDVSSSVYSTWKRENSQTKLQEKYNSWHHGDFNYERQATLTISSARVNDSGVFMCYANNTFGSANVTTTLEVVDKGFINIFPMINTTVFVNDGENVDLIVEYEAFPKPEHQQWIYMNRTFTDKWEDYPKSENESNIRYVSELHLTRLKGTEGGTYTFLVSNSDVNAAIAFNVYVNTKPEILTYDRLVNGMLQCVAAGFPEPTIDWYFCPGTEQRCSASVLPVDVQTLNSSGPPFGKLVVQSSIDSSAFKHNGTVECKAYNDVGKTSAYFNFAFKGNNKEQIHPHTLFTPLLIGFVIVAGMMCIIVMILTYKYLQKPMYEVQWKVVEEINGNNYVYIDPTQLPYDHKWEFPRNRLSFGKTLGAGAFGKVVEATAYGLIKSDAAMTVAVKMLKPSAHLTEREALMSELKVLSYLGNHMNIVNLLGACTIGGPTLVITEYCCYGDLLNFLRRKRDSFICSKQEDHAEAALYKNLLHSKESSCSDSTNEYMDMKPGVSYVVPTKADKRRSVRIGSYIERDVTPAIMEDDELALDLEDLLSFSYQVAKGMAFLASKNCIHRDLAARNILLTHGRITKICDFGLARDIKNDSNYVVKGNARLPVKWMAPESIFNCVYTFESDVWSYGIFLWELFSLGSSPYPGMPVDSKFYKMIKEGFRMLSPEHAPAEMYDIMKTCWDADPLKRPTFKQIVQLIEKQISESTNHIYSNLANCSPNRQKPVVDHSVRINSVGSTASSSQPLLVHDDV

## Cn1cc(-c2cc3c(N4CCN(c5ncc([C@@](C)(N)c6ccc(F)cc6)cn5)CC4)ncnn3c2)cn1 [Avapritinib]
[1]
  Common Side effects when used at the doses for FDA-approved treatments: Edema, Nausea, Fatigue, General weakness, Acute confusion, Vomiting, Anorexia,; also recorded: Diarrhea, Hair discoloration, Eye tearing, Acute abdominal pain, Constipation, Skin; also recorded: rash, Dizziness, Anemia, Leukopenia

## COc1cc(Nc2c(C#N)cnc3cc(OCCCN4CCN(C)CC4)c(OC)cc23)c(Cl)cc1Cl [Bosutinib]
[1]
  Common Side effects when used at the doses for FDA-approved treatments: Diarrhea, Nausea, Thrombocytopeniasorder, Vomiting, Kidney disease with; also recorded: reduction in GFR, Skin rash, Anemia, Fever, Fatigue, Neutropenic disorder,; also recorded: Abnormal hepatic function tests, Upper respiratory infection, Lower respiratory; also recorded: infection, General weakness, Anorexia, Pharyngitis, Back pain, Headache disorder,; also recorded: Dizziness, Dyspnea

## Cc1nc(Nc2ncc(C(=O)Nc3c(C)cccc3Cl)s2)cc(N2CCN(CCO)CC2)n1 [Dasatinib]
[2]
  latency to find the platform in the Morris Water Maze (spatial memory): significantly improved performance; also recorded: reduces spatial memory deficits
[3]
  survival of NeuN+ CA2-3 neurons in ipsilateral hippocampus: significantly promotes survival of CA2-3 neurons; also recorded: decreases CA2-3 neuronal loss
[1]
  Common Side effects when used at the doses for FDA-approved treatments: Fever, Fatigue, Malaise; also recorded: Infection, Hypophosphatemia, Hypocalcemia, Body fluid retention, Anemia,; also recorded: Thrombocytopenia disorder, Neutropenic disorder, Peripheral neuropathy,; also recorded: Hemorrhage, Upper respiratory infection, Pleural effusions, Stomatitis,; also recorded: Constipation, Gastrointestinal hemorrhage, Pruritus of skin, Arthralgia, Dizziness,
CCI-TBI in rats
  motor imbalance (biased swinging) in elevated body swing test: significantly mitigated motor imbalance; also recorded: mitigates motor imbalance

## COc1cc2nccc(Oc3ccc(NC(=O)NC4CC4)c(Cl)c3)c2cc1C(N)=O [Lenvatinib]
c-Kit
  IC50: 100 nM

## Cc1cn(-c2cc(NC(=O)c3ccc(C)c(Nc4nccc(-c5cccnc5)n4)c3)cc(C(F)(F)F)c2)cn1 [Nilotinib]
[1]
  Common Side effects when used at the doses for FDA-approved treatments: Hypocalcemia, Hyponatremia, Back pain, Hyperkalemia, Hypokalemia,; also recorded: Pancytopenia, Anemia, Thrombocytopenia disorder, Leukopenia, Neutropenic; also recorded: disorder, Elevated serum lipase, Hypertension, Prolonged QT interval, Pharyngitis,; also recorded: Constipation, Muscle spasm, Pruritus of skin, Arthralgia, Myalgia, Vertigo

## Cc1ccc(Nc2nccc(N(C)c3ccc4c(C)n(C)nc4c3)n2)cc1S(N)(=O)=O [Pazopanib]
[1]
  Common Side effects when used at the doses for FDA-approved treatments: Nausea, Vomiting, Diarrhea, Thrombocytopenia disorder, Leukopenia, Neutropenic; also recorded: disorder, Alopecia, Hypertension, Fatigue, Hemorrhage, General weakness, Skin; also recorded: rash, Proteinuria, Anorexia, Weight loss, Headache disorder, Hair bleaching, Pain,; also recorded: Myalgia, Thrombotic disorder

## FC(F)(F)c1ccc(CNc2ccc(Cc3c[nH]c4ncc(Cl)cc34)cn2)cn1 [Pexidartinib]
[1]
  Common Side effects when used at the doses for FDA-approved treatments: Blurred vision, decreased appetite, dizziness, fever, headache, itching or skin rash,; also recorded: fast heartbeat, swelling of the feet or lower legs

## Cc1ccc(C(=O)Nc2ccc(CN3CCN(C)CC3)c(C(F)(F)F)c2)cc1C#Cc1cnc2cccnn12 [Ponatinib]
[1]
  Common Side effects when used at the doses for FDA-approved treatments: Thromboembolic disorder, Arterial thrombosis, Hypertension, Thrombocytopenic; also recorded: disorder, Neutropenic disorder, Anemia, Skin rash, Leukopenia, Acute abdominal; also recorded: pain, Fatigue, Headache disorder, Dry skin, Constipation, Arthralgia, Nausea,; also recorded: Fever, Lymphopenia, Bone marrow depression, Diarrhea, Vomiting

## CNC(=O)c1cc(Oc2ccc(NC(=O)Nc3ccc(Cl)c(C(F)(F)F)c3)c(F)c2)ccn1 [Regorafenib]
[1]
  Common Side effects when used at the doses for FDA-approved treatments: Hypertension, Impaired wound healing, General weakness, Fatigue, Anorexia,; also recorded: Palmar-plantar erythrodysesthesia, Diarrhea, Stomatitis, Weight loss, Infection,; also recorded: Voice change, Hemorrhage, Fever, Skin rash, Headache disorder,; also recorded: Hypophosphatemia, Pain, Nausea, Acute abdominal pain, Anemia

## CCn1c(=O)c(-c2cc(NC(=O)Nc3ccccc3)c(F)cc2Br)cc2cnc(NC)cc21 [Ripretinib]
[1]
  Common Side effects when used at the doses for FDA-approved treatments: Alopecia, Fatigue, Nausea, Acute abdominal pain, Constipation, Myalgia, Diarrhea,; also recorded: Anorexia, Palmar-plantar erythrodysesthesia, Vomiting, Elevated serum lipase,; also recorded: Hypophosphatemia

## CNC(=O)c1cc(Oc2ccc(NC(=O)Nc3ccc(Cl)c(C(F)(F)F)c3)cc2)ccn1 [Sorafenib]
[1]
  Common Side effects when used at the doses for FDA-approved treatments: Hypophosphatemia, Anemia, Thrombocytopenia disorder, Leukopenia,; also recorded: Neutropenic disorder, Lymphopenia, Depression, Peripheral neuropathy,; also recorded: Hypertension, Hemorrhage, Stomatitis, Dyspepsia, Constipation, Gastrointestinal; also recorded: hemorrhage, Erectile dysfunction, Eczema, Exfoliative dermatitis, Erythema,; also recorded: Pruritus of skin, Alopecia

## CCN(CC)CCNC(=O)c1c(C)[nH]c(/C=C2\C(=O)Nc3ccc(F)cc32)c1C [Sunitinib]
[1]
  Common Side effects when used at the doses for FDA-approved treatments: Increased risk of bleeding, Pain in extremities, Peripheral edema, Back pain,; also recorded: Hypertension, Chronic heart failure; also recorded: Stomatitis, Dyspepsia, Constipation, Dry skin, Dyschromia, Arthralgia, Headache; also recorded: disorder, Dizziness, Fever, Fatigue, General weakness, Dysgeusia, Skin rash,; also recorded: Anorexia
